Test results from US10703770B2, “Compositions and methods for the dissolution and depolymerization of lignin” (National Technology & Engineering Solutions of Sandia, LLC, priority 2016, dated 2020).
“And” between values parts separate entries of the source, which are not always exact repeats. Identical values can stand only once. “Also recorded” adds a separate entry of the source.

Tests used:
[1] = reported (refs 24, 25); cited from earlier work
[2] = test system: Saccharomyces cerevisiae strain BY4741; experiment: Toxicity test of [EOA][OAc] on yeast growth; type: cell-based
Description: FIG. 5A. Toxicity test of [EOA][OAc]. Conditions: yeast strain: Saccharomyces cerevisiae strain BY4741, growth condition: in 24-well microplate with orbital-high intensity shaking/31° C./in IL solution (10 g/L glucose in each IL solutions), volume of the cell culture was 0.5 mL.
For toxicity screening, a wild type yeast strain BY4741 was technically used and it was immersed in various IL concentrations from 2.5 to 15 wt %.

[3] = test system: CTec2+HTec2 (9:1, v/v); experiment: Tolerance of commercial enzyme cocktails to IL in saccharification; type: biochemical
Description: FIG. 4C. Effects of some parameters on the sugar yield: IL concentration in hydrolysis. Normal operation conditions: pretreatment, 10 wt % SG loading, 90 wt % IL, 160° C., 0.5 h (3 h for eucalyptus); saccharification, 10 wt % IL, 20 mg protein/g SG, 50 ° C., 72 h.
As a result, the associated IL recycling and wastewater treatment costs create significant economic and process engineering challenges for the commercial scale-up of this technology. In the present process, commercial cocktails of CTec2+HTec2 (9:1, v/v) could tolerant about 10 wt % IL in saccharification process (FIG. 4C). […] [OAc] is tolerant to commercial cocktails not only in pH match, but also in its low toxic nature.
Generally, SSF requires compatible fermentation and saccharification conditions, with a similar pH, temperature and optimum substrate concentration. In a case of IL participating SSF, a compromise IL concentration for the two stages is an accessional requirement. […] [OAc] concentration of 10 wt %, however, increasing the [EOA] […] Thus, it would be interesting to see the performance of the wild yeast under different IL concentrations.
One-pot pretreatment, saccharification and fermentation: In a typical procedure, SG (100 mg) was mixed with ([EOA][OAc]) at a 10% biomass loading in a 15 mL capped glass pressure tube and pretreated in a convection oven at 160° C. for 0.5 h. […]

[4] = Solubilization of alkali lignin in solvents; conditions: 20 °C (room temperature), solvent 5 g
[5] = 25° C.; cited from earlier work

CC(=O)O.NCCO [[EOA][OAc], ethanolamine acetate]
thermal decomposition temperature, Td [1]: above 200 °C | yeast growth ([2]; 5 wt % IL concentration): better yeast growth | yeast strain growth ([2]; IL concentrations from 2.5 to 15 wt %, 31 °C, 10 g/L glucose): better growth occurs in a lower IL titer below 10 wt % | IL concentration tolerated by commercial cocktails in saccharification ([3]; CTec2+HTec2 (9:1, v/v), 50 °C, 72 h): about 10 wt % | glucose yield at raised IL concentration in saccharification ([3]; [EOA][OAc] concentration over 10 wt %): decreased glucose yield

CC1COC(=O)O1 (stereo not drawn) [PC, propylene carbonate, reference compound]
Solubility (wt %) of alkali lignin [4]: Negligible solubility; also recorded: Trace

OCC(O)CO [Glycerol]
viscosity [5]: 0.95 N s/m^2

OCCO [EG, ethylene glycol]
viscosity [5]: 0.0162 N s/m^2 | Solubility (wt %) of alkali lignin [4]: > 30 wt % and ~31 wt %
